From patent publication US8119629B2, “Carboxamide GABAA α2 modulators” (Bristol-Meyers Squibb Company, priority 2007, dated 2012) come the findings set out here.

Where a name gives a salt, the structure may show the parent alone.

For one assay, the target named is T1, rat GABAA α2β2γ2 Receptors (Rattus norvegicus, UniProt P23576).
T1 construct: expressed in transfected cells; pIRES Neo2 / Hygro2 / Puro2 vectors
T1 sequence (P23576 29-451): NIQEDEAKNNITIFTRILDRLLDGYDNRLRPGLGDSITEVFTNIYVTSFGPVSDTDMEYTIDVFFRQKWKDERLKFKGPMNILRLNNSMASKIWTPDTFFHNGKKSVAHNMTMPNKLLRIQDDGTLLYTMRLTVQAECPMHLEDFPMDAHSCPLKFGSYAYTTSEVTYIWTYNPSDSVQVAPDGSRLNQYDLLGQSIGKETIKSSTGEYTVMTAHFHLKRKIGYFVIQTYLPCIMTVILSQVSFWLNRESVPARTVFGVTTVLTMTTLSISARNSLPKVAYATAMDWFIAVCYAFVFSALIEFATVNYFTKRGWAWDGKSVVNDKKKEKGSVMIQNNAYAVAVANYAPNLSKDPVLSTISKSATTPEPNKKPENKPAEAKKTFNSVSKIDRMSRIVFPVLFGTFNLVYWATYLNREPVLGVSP
T1 sequence (P63138 25-474 partner limits assumed): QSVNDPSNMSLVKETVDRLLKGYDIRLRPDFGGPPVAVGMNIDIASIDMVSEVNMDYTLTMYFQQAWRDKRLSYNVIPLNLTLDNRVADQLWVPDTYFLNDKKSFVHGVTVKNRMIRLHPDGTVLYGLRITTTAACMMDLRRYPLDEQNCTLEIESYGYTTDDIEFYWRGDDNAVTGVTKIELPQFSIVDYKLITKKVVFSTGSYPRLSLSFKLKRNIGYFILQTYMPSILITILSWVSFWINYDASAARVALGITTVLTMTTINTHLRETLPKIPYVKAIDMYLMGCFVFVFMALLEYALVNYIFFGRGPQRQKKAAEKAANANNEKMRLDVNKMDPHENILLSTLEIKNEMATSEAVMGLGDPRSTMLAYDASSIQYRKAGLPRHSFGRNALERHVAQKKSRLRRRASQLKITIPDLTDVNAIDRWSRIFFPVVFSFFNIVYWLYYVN
T1 sequence (P18508 39-466 partner): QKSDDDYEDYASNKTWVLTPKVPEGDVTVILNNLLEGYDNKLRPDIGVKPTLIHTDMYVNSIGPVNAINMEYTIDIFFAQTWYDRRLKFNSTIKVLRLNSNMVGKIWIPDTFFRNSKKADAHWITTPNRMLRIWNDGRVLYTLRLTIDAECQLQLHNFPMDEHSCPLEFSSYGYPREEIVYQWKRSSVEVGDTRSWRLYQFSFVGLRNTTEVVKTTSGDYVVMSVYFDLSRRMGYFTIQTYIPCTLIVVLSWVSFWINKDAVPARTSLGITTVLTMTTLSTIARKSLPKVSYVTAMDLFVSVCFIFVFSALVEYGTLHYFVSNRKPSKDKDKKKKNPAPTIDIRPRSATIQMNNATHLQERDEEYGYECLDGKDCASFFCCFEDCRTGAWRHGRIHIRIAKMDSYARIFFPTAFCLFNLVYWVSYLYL
Briefly: PatchXpress 7000A automated parallel patch-clamp: potentiation of GABA EC20 current in HEK293 cells. It is filed as cell-based. The note with it: percent increase in mean GABA EC20 current response; HEK293 cells stably expressing rat GABAA α2β2γ2; voltage-clamped at −60 mV. Here is the method: Cell Line Generation and Transient Expression. In order to generate stable clonal lines expressing GABAA configurations containing α2β2γ2 subunits, HEK293 cells were transfected with 2 μg of the subunit, using the Invitrogen Lipofectamine PLUS protocol. The following DNA and vector were used for the stable transfection: α2 subunits in pIRES Neo2, β2 subunit in pIRES Hygro2, and a γ2 subunit in pIRES Puro2. Transfectants were selected with G418, Hygromycin B, and Puromycin antibiotics and cloned by limiting dilution. For transient expression, transfections were performed using the Amaxa transfection protocol and 2 μg DNA of the GABAA receptor subunit using Amaxa transfection protocol. Cells were used for experiments 24-72 hrs post transfection.
PatchXpress® 7000A Automated Parallel Patch-Clamp System. HEK293 cells stably expressing recombinant the rat GABAA/α2β2γ2 configuration were harvested by a single DPBS wash followed by 0.025% Trypsin-EDTA treatment for one minute at room temperature. A 6-ml cell suspension (1.7×10^5 cells/ml) was centrifuged at 500 rpm for 60 s. The cell pellet was gently agitated, suspended in 150 μl extracellular saline buffer, and transferred to a 1.5-ml tube.
After manually placing the AVIVA Biosciences SealChip 16™ in the holder of the PatchXpress®, the SealChip16™ was automatically prepared for application of the cells. Intracellular solution containing (in mM) CsCl, 135; EGTA, 11; MgCl2, 1; HEPES, 10; ATP, 5; GTP, 0.3 (pH 7.3 with CsOH, 290-300 mOsmol) was injected into the bottom of each chamber, and extracellular solution containing (in mM) NaCl, 140; KCl, 4; CaCl2, 1.8; MgCl2, 1; glucose, 10; HEPES, 10; ATP-K2, 5 (pH 7.4 with NaOH 305-310 mOsmol) was perfused into the top of the chambers through a 16-nozzle wash station. Throughout this period, the pressure controller maintained a positive pressure (+10 mmHg) from the intracellular side to keep the hole free of debris. Seal formation was achieved by a ramp increase in negative pressure from 0 to −35 mmHg at a rate of −3.5 mmHg/s every 10 s until a giga ohm seal was obtained and verified for 30 s.
Compounds were prepared from fresh DMSO stock and were transferred to a 96-well disposable glass insert compound plate for placement in the PatchXpress®. A full 10 point concentration-response curve for GABA was obtained for the GABA receptor cell line, from which an EC20 was estimated. Test compounds were assayed for their ability to potentiate the current response by an EC20 concentration of GABA. Each experiment began by two consecutive applications of GABA EC20 alone. Following formation of a giga-ohm seal, patch chambers were perfused with extracellular saline for 60 s to remove excess cells from the well. Cells were then voltage-clamped to −60 mV for the duration of the experiment. After 60 s, 30 μl (10 μl/s over 3 s) of GABA EC20 concentration, which elicited a GABA receptor-mediated inward Cl^− current generally in the order of 200-300 pA in peak amplitude, was added to each chamber. The GABA EC20 concentration was then washed out of the recording chamber after 5 s and washing with extracellular saline was continued for 60 s. After another 60 s, a second GABA EC20 concentration was applied under the same paradigm. […] Following the second GABA EC20 application, the lowest concentration of test compound in the presence of the GABA EC20 concentration was similarly applied. Ascending concentrations of the test compound were applied successively to an individual well in the presence of the GABA EC20 concentration.
Only cells meeting strict predetermined patch-clamp QC parameters, including seal resistance, membrane resistance, and holding current were included in data analysis. GABA current responses in the presence of test compound were measured and expressed as the mean of the initial control GABA EC20 current responses. The peak current amplitude was measured using DataXpress/pCLAMP9 (Axon Instruments). Linear leak subtraction was performed off-line. […]
`C#Cc1ccc2c(c1)C(c1ccccc1)=NCc1c(C(=O)NCCOCCNC(=O)c3ncn4c3CN=C(c3ccccc3)c3cc(C#C)ccc3-4)ncn1-2` [Example 23, N,N′-(2,2′-Oxybis(ethane-2,1-diyl))bis(8-ethynyl-6-phenyl-4H-benzo[f]imidazo[1,5-a][1,4]diazepine-3-carboxamide)]: the “GABAA α2 EP EMAX (%)” value is “* (200% < Emax < 300 *)”.
With `C#Cc1ccc2c(c1)C(c1ccccc1)=NCc1c(C(=O)NCCN(C)CCNC(=O)c3ncn4c3CN=C(c3ccccc3)c3cc(C#C)ccc3-4)ncn1-2` [Example 24, N,N′-(2,2′-(Methylazanediyl)bis(ethane-2,1-diyl))bis(8-ethynyl-6-phenyl-4H-benzo[f]imidazo[1,5-a][1,4]diazepine-3-carboxamide)], the “GABAA α2 EP EMAX (%)” value is given as “** (300% < Emax < 400 **)”.
Still for that read-out and setting: the entry for `C#Cc1ccc2c(c1)C(c1ccccc1)=NCc1c(C(=O)NCCSCCNC(=O)c3ncn4c3CN=C(c3ccccc3)c3cc(C#C)ccc3-4)ncn1-2` [Example 25, N,N′-(2,2′-Thiobis(ethane-2,1-diyl))bis(8-ethynyl-6-phenyl-4H-benzo[f]imidazo[1,5-a][1,4]diazepine-3-carboxamide)] is “* (200% < Emax < 300 *)”.
Still for that read-out and setting: the entry for “N-Cyclopropyl-8-ethynyl-6-phenyl-4H-benzo[f]imidazo[1,5-a][1,4]diazepine-3-carboxamide [Example 11]” is “** (300% < Emax < 400 **)”.

The assay is the same for the next values; noted with them: percent increase in mean GABA EC20 current response; HEK293 cells stably expressing rat GABAA α2β2γ2; voltage-clamped at −60 mV; read-out: GABAA α2 EP EMAX (%).
Turning to `C#Cc1ccc2c(c1)C(c1ccccc1)=NCc1c(C(=O)NC(C)COC)ncn1-2` (stereo not drawn) [Example 17, 8-Ethynyl-N-(1-methoxypropan-2-yl)-6-phenyl-4H-benzo[f]imidazo[1,5-a][1,4]diazepine-3-carboxamide], the Emax was in the range of 200 to 300%.
Take `C#Cc1ccc2c(c1)C(c1ccccc1)=NCc1c(C(=O)NCCCOC)ncn1-2` [Example 18, 8-Ethynyl-N-(3-methoxypropyl)-6-phenyl-4H-benzo[f]imidazo[1,5-a][1,4]diazepine-3-carboxamide]: the maximal effect (Emax) lay in the range of 400 to 500%.
On the same count and under the same terms, the figure for `C#Cc1ccc2c(c1)C(c1ccccc1)=NCc1c(C(=O)NCCOCCC)ncn1-2` [Example 19, 8-Ethynyl-6-phenyl-N-(2-propoxyethyl)-4H-benzo[f]imidazo[1,5-a][1,4]diazepine-3-carboxamide] is 400 to 500%; for `C#Cc1ccc2c(c1)C(c1ccccc1)=NCc1c(C(=O)NCCOC(C)C)ncn1-2` [Example 20, 8-Ethynyl-N-(2-isopropoxyethyl)-6-phenyl-4H-benzo[f]imidazo[1,5-a][1,4]diazepine-3-carboxamide] it is 400 to 500%.
On the same count and under the same terms, the figure for `C#Cc1ccc2c(c1)C(c1ccccc1)=NCc1c(C(=O)N3CCN(c4ncccn4)CC3)ncn1-2` [Example 21, (8-Ethynyl-6-phenyl-4H-benzo[f]imidazo[1,5-a][1,4]diazepin-3-yl)(4-(pyrimidin-2-yl)piperazin-1-yl)methanone] is 200 to 300%; for `C#Cc1ccc2c(c1)C(c1ccccc1)=NCc1c(C(=O)NCC(O)CC)ncn1-2` (stereo not drawn) [Example 26, 8-Ethynyl-N-(2-hydroxybutyl)-6-phenyl-4H-benzo[f]imidazo[1,5-a][1,4]diazepine-3-carboxamide] it is 200 to 300%; for `C#Cc1ccc2c(c1)C(c1ccccc1)=NCc1c(C(=O)NC[C@@H](C)O)ncn1-2` [Example 27, 8-Ethynyl-N—((R)-2-hydroxypropyl)-6-phenyl-4H-benzo[f]imidazo[1,5-a][1,4]diazepine-3-carboxamide] it is 200 to 300%.
The same measure, in the same setting: the result for `C#Cc1ccc2c(c1)C(c1ccccc1)=NCc1c(C(=O)NC[C@H](C)O)ncn1-2` [Example 28, 8-Ethynyl-N—((S)-2-hydroxypropyl)-6-phenyl-4H-benzo[f]imidazo[1,5-a][1,4]diazepine-3-carboxamide] reads 300 to 400%; that for `C#Cc1ccc2c(c1)C(c1ccccc1)=NCc1c(C(=O)NCCCO)ncn1-2` [Example 29, 8-Ethynyl-N-(3-hydroxypropyl)-6-phenyl-4H-benzo[f]imidazo[1,5-a][1,4]diazepine-3-carboxamide dihydrochloride], 300 to 400%; that for `C#Cc1ccc2c(c1)C(c1ccccc1)=NCc1c(C(=O)NCCCCCO)ncn1-2` [Example 30, 8-Ethynyl-N-(5-hydroxypentyl)-6-phenyl-4H-benzo[f]imidazo[1,5-a][1,4]diazepine-3-carboxamide dihydrochloride], 300 to 400%.
On to `C#Cc1ccc2c(c1)C(c1ccccc1)=NCc1c(C(=O)NCCCCO)ncn1-2` [Example 31, 8-Ethynyl-N-(4-hydroxybutyl)-6-phenyl-4H-benzo[f]imidazo[1,5-a][1,4]diazepine-3-carboxamide dihydrochloride], for which the Emax is 300 to 400%.
On the same count and under the same terms, the result for `C#Cc1ccc2c(c1)C(c1ccccc1)=NCc1c(C(=O)NCCOC(C)=O)ncn1-2` [Example 32, 2-(8-Ethynyl-6-phenyl-4H-benzo[f]imidazo[1,5-a][1,4]diazepine-3-carboxamido)ethyl acetate dihydrochloride] reads 300 to 400%; that for `C#Cc1ccc2c(c1)C(c1ccccc1)=NCc1c(C(=O)NCC(=O)O)ncn1-2` [Example 33, 2-(8-Ethynyl-6-phenyl-4H-benzo[f]imidazo[1,5-a][1,4]diazepine-3-carboxamido)acetic acid], 400 to 500%; that for `C#Cc1ccc2c(c1)C(c1ccccc1F)=NCc1c(C(=O)NCCOC)ncn1-2` [Example 34, 8-Ethynyl-6-(2-fluorophenyl)-N-(2-methoxyethyl)-4H-benzo[f]imidazo[1,5-a][1,4]diazepine-3-carboxamide dihydrochloride], 300 to 400%.
For the compound `C#Cc1ccc2c(c1)C(c1ccccc1)=NCc1c(C(=O)NCc3ccco3)ncn1-2` [Example 35, 8-Ethynyl-N-(furan-2-ylmethyl)-6-phenyl-4H-benzo[f]imidazo[1,5-a][1,4]diazepine-3-carboxamide, dihydrochloride], the Emax lay in the range of 200 to 300%.
Take `C#Cc1ccc2c(c1)C(c1ccccc1)=NCc1c(C(=O)NCC3CCCO3)ncn1-2` (stereo not drawn) [Example 36, 8-Ethynyl-6-phenyl-N-((tetrahydrofuran-2-yl)methyl)-4H-benzo[f]imidazo[1,5-a][1,4]diazepine-3-carboxamide, dihydrochloride]: the Emax is 300 to 400%.
On the same count and under the same terms, the figure for `C#Cc1ccc2c(c1)C(c1ccccn1)=NCc1c(C(=O)NCCOC)ncn1-2` [Example 37, 8-Ethynyl-N-(2-methoxyethyl)-6-(pyridin-2-yl)-4H-benzo[f]imidazo[1,5-a][1,4]diazepine-3-carboxamide] is 200 to 300%.
